The supplement of paper PMC13207355
Structures can show the parent of a compound that is named as a salt.

Columns and labels:
Conditions in all cases: exposure time: 72 h
[1] = system: FT3469 (normal neural stem cell line); test: surviving fraction (nuclei count normalised to DMSO); higher = more cells surviving (less toxic)
[2] = system: E13 (patient-derived glioblastoma stem cells of classical subtype); test: as above
[3] = system: E57 (patient-derived glioblastoma stem cells of mesenchymal subtype); test: as above
[4] = system: E34 (patient-derived glioblastoma stem cells of proneural subtype); test: as above
[5] = system: E31 (patient-derived glioblastoma stem cells of proneural subtype); test: as above
[6] = system: E28 (patient-derived glioblastoma stem cells of classical subtype); test: as above
[7] = system: E21 (patient-derived glioblastoma stem cells of mesenchymal subtype); test: as above
[8] = system: FT3469; test: phenotypic distance (Euclidean, principal components) from DMSO controls (arbitrary units); higher = stronger morphological change
[9] = system: E13; test: as above
[10] = system: E57; test: as above
[11] = system: E34; test: as above
[12] = system: E31; test: as above
[13] = system: E28; test: as above
[14] = system: E21; test: as above
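Wherever phenotypic distance (Euclidean, principal components) from DMSO controls is given: cell Painting imaging in 384-well plates, CellProfiler features reduced to at least 20 principal components, Euclidean distance versus same-plate DMSO vehicle wells (0.1% v/v), median over six images per well.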
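Wherever surviving fraction (nuclei count normalised to DMSO) is given: nuclei counted by high-content imaging of Hoechst-stained cells in laminin-coated 384-well plates, relative to 0.1% DMSO vehicle wells, with staurosporine as cell-death control.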

CCOC(=O)OC(C)OC(=O)[C@@H]1N2C(=O)[C@@H](NC(=O)[C@H](N)c3ccccc3)[C@H]2SC1(C)C (stereo partly drawn) [Bacampicillin hydrochloride]
surviving fraction ([1]; 4.1 nM): 0.909
surviving fraction ([1]; 12.3 nM): 0.875
surviving fraction ([1]; 37 nM): 1.05
surviving fraction ([1]; 111.1 nM): 0.978
surviving fraction ([1]; 333.3 nM): 1.03
surviving fraction ([1]; 1000 nM): 1.05
surviving fraction ([1]; 3000 nM): 0.858
surviving fraction ([2]; 4.1 nM): 0.878
surviving fraction ([2]; 12.3 nM): 0.951
surviving fraction ([2]; 37 nM): 1.03
surviving fraction ([2]; 111.1 nM): 0.813
surviving fraction ([2]; 333.3 nM): 1
surviving fraction ([2]; 1000 nM): 1.04
surviving fraction ([2]; 3000 nM): 1.11
surviving fraction ([3]; 4.1 nM): 0.987
surviving fraction ([3]; 12.3 nM): 1.09
surviving fraction ([3]; 37 nM): 0.961
surviving fraction ([3]; 111.1 nM): 1.03
surviving fraction ([3]; 333.3 nM): 0.926
surviving fraction ([3]; 1000 nM): 0.97
surviving fraction ([3]; 3000 nM): 0.956
surviving fraction ([4]; 4.1 nM): 0.918
surviving fraction ([4]; 12.3 nM): 1.02
surviving fraction ([4]; 37 nM): 0.858
surviving fraction ([4]; 111.1 nM): 0.934
surviving fraction ([4]; 333.3 nM): 1.25
surviving fraction ([4]; 1000 nM): 1.05
surviving fraction ([4]; 3000 nM): 1.07
surviving fraction ([5]; 4.1 nM): 0.986
surviving fraction ([5]; 12.3 nM): 0.807
surviving fraction ([5]; 37 nM): 0.871
surviving fraction ([5]; 111.1 nM): 0.941
surviving fraction ([5]; 333.3 nM): 1
surviving fraction ([5]; 1000 nM): 0.965
surviving fraction ([5]; 3000 nM): 1.1
surviving fraction ([6]; 4.1 nM): 0.882
surviving fraction ([6]; 12.3 nM): 0.993
surviving fraction ([6]; 37 nM): 1.09
surviving fraction ([6]; 111.1 nM): 1.19
surviving fraction ([6]; 333.3 nM): 0.997
surviving fraction ([6]; 1000 nM): 1.15
surviving fraction ([6]; 3000 nM): 1.06
surviving fraction ([7]; 4.1 nM): 0.982
surviving fraction ([7]; 12.3 nM): 1.01
surviving fraction ([7]; 37 nM): 1.09
surviving fraction ([7]; 111.1 nM): 1.01
surviving fraction ([7]; 333.3 nM): 1
surviving fraction ([7]; 1000 nM): 0.914
surviving fraction ([7]; 3000 nM): 1.06
phenotypic distance ([8]; 4.1 nM): 0.697
phenotypic distance ([8]; 12.3 nM): 0.387
phenotypic distance ([8]; 37 nM): 0.735
phenotypic distance ([8]; 111.1 nM): 0.551
phenotypic distance ([8]; 333.3 nM): 0.433
phenotypic distance ([8]; 1000 nM): 0.827
phenotypic distance ([8]; 3000 nM): 0.96
phenotypic distance ([9]; 4.1 nM): 0.65
phenotypic distance ([9]; 12.3 nM): 1.12
phenotypic distance ([9]; 37 nM): 0.975
phenotypic distance ([9]; 111.1 nM): 0.635
phenotypic distance ([9]; 333.3 nM): 0.439
phenotypic distance ([9]; 1000 nM): 0.698
phenotypic distance ([9]; 3000 nM): 0.628
phenotypic distance ([10]; 4.1 nM): 0.537
phenotypic distance ([10]; 12.3 nM): 1.07
phenotypic distance ([10]; 37 nM): 0.681
phenotypic distance ([10]; 111.1 nM): 0.754
phenotypic distance ([10]; 333.3 nM): 0.45
phenotypic distance ([10]; 1000 nM): 0.576
phenotypic distance ([10]; 3000 nM): 0.604
phenotypic distance ([11]; 4.1 nM): 0.569
phenotypic distance ([11]; 12.3 nM): 0.614
phenotypic distance ([11]; 37 nM): 0.651
phenotypic distance ([11]; 111.1 nM): 0.507
phenotypic distance ([11]; 333.3 nM): 1.28
phenotypic distance ([11]; 1000 nM): 0.329
phenotypic distance ([11]; 3000 nM): 1.06
phenotypic distance ([12]; 4.1 nM): 0.89
phenotypic distance ([12]; 12.3 nM): 0.639
phenotypic distance ([12]; 37 nM): 0.836
phenotypic distance ([12]; 111.1 nM): 0.578
phenotypic distance ([12]; 333.3 nM): 0.932
phenotypic distance ([12]; 1000 nM): 0.697
phenotypic distance ([12]; 3000 nM): 0.565
phenotypic distance ([13]; 4.1 nM): 0.82
phenotypic distance ([13]; 12.3 nM): 0.789
phenotypic distance ([13]; 37 nM): 1.1
phenotypic distance ([13]; 111.1 nM): 0.421
phenotypic distance ([13]; 333.3 nM): 0.781
phenotypic distance ([13]; 1000 nM): 0.904
phenotypic distance ([13]; 3000 nM): 0.881
phenotypic distance ([14]; 4.1 nM): 0.814
phenotypic distance ([14]; 12.3 nM): 0.643
phenotypic distance ([14]; 37 nM): 1.05
phenotypic distance ([14]; 111.1 nM): 0.376
phenotypic distance ([14]; 333.3 nM): 0.776
phenotypic distance ([14]; 1000 nM): 0.7
phenotypic distance ([14]; 3000 nM): 0.853
